Test results from article PMC4045134, “Discovery of Triterpenoids as Reversible Inhibitors of α/β-hydrolase Domain Containing 12 (ABHD12)” (PLoS ONE, 2014).

What was measured:
Type in all cases: biochemical
hMAGL = biological target: T1, hMAGL (Homo sapiens, UniProt Q99685); experiment: Fluorescent glycerol assay in hMAGL-HEK293 lysates; details: 10 µM; read-out: hMAGL Remaining activity % control ± s.e.m (n=3)
T1 construct: expressed in transfected cells; host or cells: HEK293 (transient)
T1 sequence (Q99685 1-303): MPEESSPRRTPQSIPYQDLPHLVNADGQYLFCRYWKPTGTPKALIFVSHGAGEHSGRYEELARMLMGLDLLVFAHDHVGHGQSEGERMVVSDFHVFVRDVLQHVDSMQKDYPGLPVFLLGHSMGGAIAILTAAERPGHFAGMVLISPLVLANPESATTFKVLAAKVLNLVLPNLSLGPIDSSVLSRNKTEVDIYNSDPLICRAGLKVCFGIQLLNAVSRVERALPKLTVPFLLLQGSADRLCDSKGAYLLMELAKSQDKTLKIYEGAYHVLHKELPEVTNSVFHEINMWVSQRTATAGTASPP

hFAAH = biological target: T2, hFAAH (Homo sapiens, UniProt O00519); experiment: FAAH activity, membranes of hFAAH overexpressing COS-7 cells, 3H-anandamide; details: read-out: hFAAH Remaining activity % control (mean (range)), n=2
T2 construct: expressed in transfected cells; host or cells: COS-7
T2 sequence (O00519 1-579): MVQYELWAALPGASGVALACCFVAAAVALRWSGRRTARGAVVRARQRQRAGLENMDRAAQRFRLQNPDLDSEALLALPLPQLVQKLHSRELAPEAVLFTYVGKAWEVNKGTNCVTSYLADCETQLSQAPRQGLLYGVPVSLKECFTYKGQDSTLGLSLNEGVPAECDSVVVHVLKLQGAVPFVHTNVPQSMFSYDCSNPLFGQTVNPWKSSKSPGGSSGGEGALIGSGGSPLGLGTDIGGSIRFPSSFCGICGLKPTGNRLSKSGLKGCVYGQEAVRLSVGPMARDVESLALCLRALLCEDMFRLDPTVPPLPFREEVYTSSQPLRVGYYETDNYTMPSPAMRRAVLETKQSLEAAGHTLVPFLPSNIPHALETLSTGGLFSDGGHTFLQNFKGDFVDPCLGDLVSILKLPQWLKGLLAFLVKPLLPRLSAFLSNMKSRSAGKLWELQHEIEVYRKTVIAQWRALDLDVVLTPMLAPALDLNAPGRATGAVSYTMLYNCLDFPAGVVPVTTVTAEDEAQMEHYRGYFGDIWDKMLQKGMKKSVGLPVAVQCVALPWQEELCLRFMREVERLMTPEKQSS
Procedure: Glycerol liberated from 1-AG hydrolysis was determined with a sensitive fluorescent assay using lysates of HEK293 cells with transient overexpression of hABHD12, hABHD6 or hMAGL, essentially as previously described. […] Fluorescence (λex 530; λem 590 nm) was monitored using a Tecan Infinite M200 plate reader (Tecan Group Ltd., Männedorf, Switzerland). Inhibitory activities of selected compounds towards FAAH were determined using membranes of hFAAH overexpressing COS-7 cells, essentially as previously described. The final incubation volume (100 µL) contained 1 µg of protein and the substrate concentration was 20 µM (10 nM of ^3H-anandamide having specific activity of 60 Ci/mmol and concentration of 1 mCi/mL).

hABHD12 = biological target: T3, hABHD12 (Homo sapiens, UniProt Q8N2K0); experiment: Reversibility testing, 40-fold dilution of enzyme-inhibitor complex; details: time points 10, 20, 30, 60 and 90 min
T3 construct: expressed in transfected cells; host or cells: HEK293 (transient)
T3 sequence (Q8N2K0 1-398): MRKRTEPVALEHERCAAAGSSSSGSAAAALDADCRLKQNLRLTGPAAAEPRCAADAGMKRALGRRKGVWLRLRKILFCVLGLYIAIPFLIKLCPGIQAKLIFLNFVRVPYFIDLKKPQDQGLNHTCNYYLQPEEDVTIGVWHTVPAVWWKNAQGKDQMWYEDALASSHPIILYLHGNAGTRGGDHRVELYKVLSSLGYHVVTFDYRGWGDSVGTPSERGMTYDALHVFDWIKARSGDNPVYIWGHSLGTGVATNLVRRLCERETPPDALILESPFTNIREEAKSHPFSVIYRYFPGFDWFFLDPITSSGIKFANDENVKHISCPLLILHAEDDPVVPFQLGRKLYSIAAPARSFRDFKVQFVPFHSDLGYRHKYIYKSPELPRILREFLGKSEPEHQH
Procedure: Reversibility testing was carried out as previously described. Briefly, DMSO/inhibitor (0.5 µl) was incubated together with hABHD12-HEK293 lysate (4.5 µl, 0.3 µg protein/well) in TEMN-BSA buffer for 30 min. After this, a 40-fold dilution of enzyme-inhibitor complex was brought about by addition of the substrate [1-AG, 12.5 µM final concentration, containing additionally 1% EtOH (v/v)] in 195 µl of glycerol assay mix and fluorescence was kinetically monitored at 10 min intervals for 90 min at RT.

Structure (SMILES): CC1(C)CC[C@]2(C(=O)O)CC[C@]3(C)C(=CC[C@@H]4[C@@]5(C)C[C@@H](O)[C@H](O)C(C)(C)[C@@H]5CC[C@]43C)[C@@H]2C1 [Compound 8, Maslinic acid, reference compound]
- remaining activity at 10 µM (hMAGL): 95.6 ± 0.8%
- remaining activity at 10 µM (hFAAH): 83%
- time-dependency of inhibitor potency (IC50) after 40-fold dilution (hABHD12): time-dependent drop of inhibitor potency
